Measurements reported in US20260365698A1, “STAPLED PEPTIDES FOR SENSITIZATION OF CANCER TO TREATMENT” (Purdue Research Foundation, priority 2022, published 2026).
“Also recorded” adds a separate entry of the source. Bridge positions count the residues as written; N and C are the ends. Square brackets hold non-standard residues; d marks the D form. Peptide text beside a SMILES is read from it. S5 = C=CCCC[C@](C)(N)C(=O)O

Experiments:
proteinase K = experiment: Proteinase K peptide stability assay; settings: 55 μM peptide, 10 μg/mL proteinase K; some significant degradation
Method: Data are from three independent replicates with standard error indicated. Scale bar indicates 50 μm.
Peptide stability assays were performed using the protocols described in Cromm et al., Protease-resistant and cell-permeable double-stapled peptides targeting the Rab8a GTPase, ACS Chemical Biology 11(8): 2375-2382 (2016). Briefly, 55 μM of peptide was incubated with 10 μg/mL proteinase K for the indicated timepoints. At the end of each time point, 50 μL of the reaction mixture were quenched in 100 μL of a 1:1 mixture acetonitrile/water+1% formic acid (FA). Samples were injected and analyzed on a Triple quad. Analysis was done using an Agilent Technologies 1200 Series attached to an Agilent Technologies 6460 Triple Quad LC/MS. Analysis was performed with a ZORBAX XDB-C18 […], 2.1×50 mm column (Agilent Technologies, Inc., Santa Clara, CA). Eluent A: H2O with 0.1% FA. Eluent B: MeCN with 0.1% FA. Purity analysis utilized the gradient as follows: (A:B, 0.3 mL/min): 95:5, 0 minutes; 95:5, 1 minute; 5:95, 5 minutes; 5:95, 8 minutes: 95:5, 8.5 minutes; 95:5, 12.5 minutes.

Nrf2 = experiment: Dual luciferase assay, NQO1-ARE firefly / TK-Renilla reporter; assay type: cell-based; settings: HEK-293T cells; for inhibition of Nrf2 activity: 16 hours, 50 μM in FIG. 4A
Method: The results are averages from three replicates.
The peptides from Example 1 were screened for Nrf2 inhibition using a previously developed dual luciferase assay. Ren et al., Brusatol enhances the efficacy of chemotherapy by inhibiting the Nrf2-mediated defense mechanism, Biological Sciences 108(4): 1433-1438 (2011). Briefly, HEK-293T cells stably expressing ARE-firefly luciferase and TK-Renilla luciferase were used. The cells were treated with different concentrations of compounds N1 (SEQ ID NO: 3), N1 S (SEQ ID NO: 6), N2 (SEQ ID NO: 4), N2S (SEQ ID NO: 7), N3 (SEQ ID NO: 5), and N3S (SEQ ID NO: 8) for 16 hours. The cells were lysed in 1× passive lysis buffer, and both firefly luciferase and Renilla luciferase activities were measured using the Promega Dual-Luciferase™ Reporter (DLR™) Assay System and a luminometer (Turner Biosystems 20/20^n Luminometer). The samples were in triplicate for all concentrations of compounds (n=3).

MafG = target: T1, MafG (Homo sapiens, UniProt O15525); experiment: Immunoprecipitation (biotinylated pull-down) assay; assay type: binding; settings: 20-fold unlabeled N1S
T1 construct: made in house; host or cells: E. coli Rosetta (DE3), vector pET15B, Ni-NTA purified
T1 sequence (O15525 whole entry): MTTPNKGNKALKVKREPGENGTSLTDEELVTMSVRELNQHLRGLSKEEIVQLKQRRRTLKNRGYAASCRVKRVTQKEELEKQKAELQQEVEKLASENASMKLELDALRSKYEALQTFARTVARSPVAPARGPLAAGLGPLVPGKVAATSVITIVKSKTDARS
Method: To show direct interaction between compound NIS and MafG, an immunoprecipitation assay was carried out with His-tagged, purified MafG and biotin-labeled compound NTS peptide. Briefly, a Pierce™ Biotinylated Protein Interaction Pull-Down Kit was purchased from Thermo Fisher, and manufacturer's instructions were followed. Purified His-tagged MafG and biotin-tagged NIS were used as […] proteins. For competition experiments, 20× unlabeled NIS was added after 1 hour incubation with MafG.

[1] = test system: thioredoxin reductase 1 (TrxR1) in A549 cells; experiment: Western blot, TrxR1 expression; assay type: cell-based; settings: 72 hours
Method: After confirming the in vitro activity of NIS, its mechanism in a cellular context was examined. Western blots were carried out in the A549 non-small cell lung cancer cell line to show the effects of N1S inhibition on the protein expression of Nrf2-regulated proteins. Briefly, A549 cells were seeded in 6-well plates at a concentration of 2×10^5 cells/ml in 2.5 ml. Cells were treated the next day with either peptide at the desired concentration or DMSO. After a 72-hour incubation, cells were collected by trypsinization and centrifugation. Pellets were washed with PBS three times before the pellet was resuspended in 250 μL of RIPA buffer containing protease inhibitor and kept on ice for 30 minutes with intermittent vortex. The cells were then spun at 16,000 g for 5 minutes, and the supernatant was collected. Protein concentration of lysate was normalized with Pierce BCA Protein Assay Kit (Thermo Fisher Scientific, Waltham, MA). Equal volumes of lysate were mixed with 2× Laemmli sample buffer before separating on 4-15% Mini Protean TGX SDS-PAGE (Bio-Rad Laboratories, Hercules, CA). […]
ImageJ was used for quantification of all bands. Primary antibodies: TrxR1 (Santa Cruz Biotechnology, Dallas, TX), sc-28321, 1:100 dilution (~55 kDa band analyzed); j-actin (Cell Signaling Technology, Inc., Danvers, MA), #3700, 1:1000. […]

[2] = test system: glutathione (GSH) in A549 cells; experiment: GSH-Glo glutathione quantification; assay type: cell-based; settings: 24 hours
Method: Data are from three independent experiments with standard deviation. ****p<0.0001, one-way ANOVA.
The manufacturer's instructions were followed. Cells were plated at a density of 20,000 cells/ml and treated with various concentrations of NIS for 24 hours.

[3] = test system: A549 non-small cell lung cancer cells; experiment: Incucyte live-cell analysis of combination with cisplatin; synergy by Chou-Talalay method; assay type: cell-based; settings: relatively low concentrations of cisplatin, varying concentrations of N1S
Method: Cl values<1 were synergistic (red), CI values=1 were additive (green), and CI values>1 were antagonistic (not observed).
NTS, cisplatin, or a combination thereof. Error bars represent the standard deviation between three technical replicates. The data are representative of three independent experiments.
The ability of compound N1S to increase sensitivity to chemotherapeutics was examined. A549 non-small cell lung cancer cells were seeded into a Corning® 96-Well Cell Culture Plate (clear, sterile, non-treated) and incubated for 24 hours. The cells were treated with cisplatin alone, compound NIS alone, or in combination. Immediately following treatment, the cells were placed into an Incucyte® S3 Live-Cell Analysis Instrument (Sartorius AG, Gottingen, Germany) and imaged every two hours for three days. The Incucyte® S3's analytical software was used to calculate cell confluency at each time point. Synergy was determined using the Chou-Talalay method.

**Q.** For `CC[C@H](C)[C@H](NC(C)=O)C(=O)N[C@H](C(=O)N[C@@H](CCC(=O)O)C(=O)N[C@@H](CC(C)C)C(=O)N[C@@H](CCC(=O)O)C(=O)N[C@@]1(C)CCCC=CCCC[C@@](C)(C(=O)N[C@@H](CC(C)C)C(=O)N[C@@H](CCCCN)C(=O)N[C@@H](CC(=O)O)C(=O)N[C@@H](CCC(=O)O)C(=O)N[C@@H](CCCCN)C(=O)N[C@@H](CCC(=O)O)C(N)=O)NC(=O)[C@H](CC(=O)O)NC(=O)[C@H](CC(C)C)NC(=O)[C@H](CC(=O)O)NC1=O)C(C)C` [N1S] (Ac-IVELE[S5]DLD[S5]LKDEKE-NH2; staple 6-10), which “time at which significant degradation starts” value (proteinase K) is on record?
**A.** 24 h

**Q.** What about the “inhibition of Nrf2 activity” value (Nrf2) of the same compound?
**A.** inhibit Nrf2

**Q.** What about the “inhibition of Nrf2 activity” value (Nrf2; listed as NIS) of the same compound?
**A.** most potent inhibition of Nrf2 activity

**Q.** And the “dose response for Nrf2 inhibition” value (Nrf2; FIG. 4B)?
**A.** showed a dose-response curve for Nrf2 inhibition

**Q.** And the “competition of N1S-biotin/MafG interaction by unlabeled peptide” value (MafG)?
**A.** could be competed away

**Q.** What about the TrxR1 protein expression [1] of the same compound?
**A.** decrease

**Q.** What about the “glutathione (GSH) levels” value [2] of the same compound?
**A.** Significant reductions

**Q.** And the synergy with cisplatin [3]?
**A.** synergy was observed; also recorded: strong synergy
